The test system of one data set is Strep mutans. Briefly: MIC (minimum inhibitory concentration) with Strep. mutans. It counts as cell-based. To be noted: active ingredient alone, water/alcohol/propylene glycol mixture, total bacterial inhibition. From the text: Hexetidine is a broad-spectrum, water-insoluble antibacterial, having the chemical formula [drawing 1] 5-amino-1,3-bis(2 ethylhexyl)-5-methyl-hexahydropyrimidine. It has been used as an antibacterial agent in antiplaque and antigingivitis oral compositions as previously discussed. However, hexetidine is a bitter-tasting chemical, thereby limiting its use to low levels in order to minimize its bitter taste, which in turn limits its therapeutic activity.
Table I gives the MIC (minimum inhibitory concentration) results with Strep. mutans.
All the active ingredients (AI) are in water/alcohol/propylene glycol mixtures.
The FIC (Fractional Inhibitory Concentration), has been calculated from the MIC data for each ratio.
A minimum concentration of 0.60 ppm hexetidine alone is needed for total bacterial inhibition, and a minimum concentration of 40 ppm of zinc++ alone is required for total bacterial inhibition; whereas a concentration of 0.12 ppm hexetidine in combination with 0.12 ppm zinc++ effects total bacterial inhibition. This increase in the antibacterial activity of the hexetidine due to the presence of the zinc++ reduces the amount necessary to produce a therapeutic effect, and this minimizes the bitter taste associated with hexetidine.

For data set [1] the following is noted: cited from earlier work.
Data set [2] in a line: Active ingredient stability of dentifrice after aging 9 weeks at 49° C.
Excerpt: The pH of the dentifrice can be adjusted to 5-6 with an appropriate acid such as acetic acid, citric acid, hydrochloric acid, phosphoric acid, etc., if necessary.

Like-named read-outs stand apart in the source and are kept apart here.

As to `CCCCC(CC)CN1CN(CC(CC)CCCC)CC(C)(N)C1` (stereo not shown) [Hexetidine, 5-amino-1,3-bis(2 ethylhexyl)-5-methyl-hexahydropyrimidine], the MIC turned out to be 0.6 mg/L in the data set on Strep mutans (Streptococcus mutans, read-out: MIC) and 0.60 ppm in the data set with Strep mutans. Besides, in data set [1], the water solubility result is on record as “water-insoluble”. In addition, the “% Available After Aging” value was determined as 65% in data set [2] (in dentifrices of Examples 1 and 2 (sodium lauryl sulfate), pH 5-6, 90720 min); 92% in data set [2] (in dentifrices of Examples 3 and 4 (polyoxyethylene (20) sorbitan monoisostearate), pH 5.0-6.0, 90720 min).
In the case of Zinc++, the MIC is given as 40.00 ppm in the data set on Strep mutans and 40 ppm with Strep mutans (listed as zinc++).

Source of the values: patent US4774078A, “Stable antiplaque dentifrice based on hexetidine, zinc ion and fluoride” (Colgate-Palmolive Company, priority 1986, dated 1988).
